Assay results reported in patent US11684614B2, “Formulations of hydroxypyridonate actinide/lanthanide decorporation agents” (priority 2017, dated 2023).
Values joined by “and” are separate entries in the source; they are usually repeats but may differ in a detail not shown here. Equal entries are not always repeated.

Assay: Repeated-treatment efficacy for removing an intravenous dose of 238Pu (excretion, tissue retention, clinical observations), female and male arms
Assay type: in vivo, Swiss-Webster mice
Conditions: listed as 3,4,3-LI(1,2-HOPO); for % Recovered Dose - Feces per Day: male mice
Procedure: The objective of this study was to characterize the efficacy of 3,4,3-L1(1,2-HOPO) at enhancing elimination from an internal plutonium burden in female and male Swiss-Webster mice administered a soluble citrate complex of ^238Pu and treated multiple times, starting at 24 hours after the exposure. Efficacy was evaluated by comparing the tissue contents, urinary and fecal excretions of ^238Pu in treated animals versus untreated animals.
The medical countermeasure 3,4,3-L1(1,2-HOPO) was administered parenterally (ip) or orally (po) via consecutive injections or gavages (six daily or twelve twice daily) starting at 24 hours post contamination at the following four selected doses: 30 μmol/kg ip, 150 μmol/kg po, 300 μmol/kg po, and 600 μmol/kg po (equivalent to respective approximate human doses range of […], using the accepted conversion system of mouse doses into human equivalent doses—HED—based on body surface area). Oral doses also included the permeability enhancer selected during formulation development work.
• Challenge isotope: ^238Pu • Challenge dose: 25 nCi (i.e., approximately 0.8 μCi/kg) • Route of contamination: Intravenous (iv) tail-vein • Route of treatment: Intraperitoneal Injection (ip) or Oral (po) • Frequency of treatment: Multiple (once- or twice-daily for 6 days) doses, starting 24 hr postcontamination • Treatment dose calculation: Dose calculations (mg/kg or μmol/kg) for the decorporation agent were based on the individual body weight measured after contamination. • Study Duration: 11 days, in-life
c. […] Test article and control dose formulations were prepared within 1 day of dose administration, by weighing out the appropriate amount of test article, dispersing in vehicle. For ip solutions, the test article was used alone, while for oral suspensions, a mixture of test article and excipient (90:10, w:w) was used. The pH was adjusted to 7.0-7.4 for ip administration and 5.0-5.5 for oral administration with sterile NaOH. Dose formulations were prepared at room temperature and filter-sterilized. • Storage: 2-8° C.; refrigerated; protected from light. • Characterization: The concentration of each test article formulation was verified by high-performance liquid chromatography-mass spectrometry. • Test Article Handling: Test, reference, and control article formulations were handled with the use of eye protection, gloves, and a protective laboratory coat. • Correct Dose Assurance: The test article was weighed with calibrated balances. The administration of each dose formulation was properly documented, and the amount administered to each animal recorded.
e. Experimental Procedures (In-Life Evaluations and Euthanasia) • Contamination: Single administration by intravenous (iv) tail-vein injection (0.2 mL injection volume) under isoflurane anesthesia. Three standard 0.2 mL injections were performed into polyethylene bottles and pre-loaded with aliquots of concentrated nitric acid on each injection day. Six female and six male mice were culled for necropsy 1 hr post-contamination and were used as standards. A11 standards were processed and counted together with the final samples to allow verification of the contamination dose. • Dose Administration: Single administration by intraperitoneal injection (ip) or oral gavage (po) under isoflurane anesthesia. • Mortality/Morbidity: Assessed at least once daily. • Clinical Observations: Recorded once daily (4 hr post-dose on day of treatment), or more often as clinical signs warranted. […]

[1] = male arm table, Day 11 necropsy, animal group M

## O=C(NCCCN(CCCCN(CCCNC(=O)c1cccc(=O)n1O)C(=O)c1cccc(=O)n1O)C(=O)c1cccc(=O)n1O)c1cccc(=O)n1O [3,4,3-L1(1,2-HOPO)]
[1]
  % Recovered Dose Urine per Day, Day 5: 0.66% and 0.36% and 0.19% and 0.53% and 0.60% and 0.47% and 0.30% and 0.22%
  % Recovered Dose Urine per Day, Day 6: 0.38% and 0.35% and 0.46% and 0.26% and 0.36% and 0.41% and 0.12% and 0.61%
  % Recovered Dose Urine per Day, Day 7: 0.73% and 0.69% and 0.76% and 0.65% and 0.63% and 0.83% and 0.47% and 0.38%
  % Recovered Dose Urine per Day, Day 8: 0.40% and 0.36% and 0.42% and 0.32% and 0.43% and 0.34% and 0.74% and 0.33%
  % Recovered Dose Urine per Day, Day 9: 0.40% and 0.45% and 0.37% and 0.42% and 0.61% and 0.41% and 0.48%
  % Recovered Dose Urine per Day, Day 10: 0.12% and 0.23% and 0.16% and 0.28% and 0.21% and 0.62% and 0.46% and 0.27%
  % Recovered Dose Urine per Day, Day 11: 0.35% and 0.30% and 0.22% and 0.20% and 0.36% and 0.43% and 0.26% and 0.42%
Group B, feces day 1, Day 7 necropsy
  % Recovered Dose - Feces per Day: 4.37% and 8.32% and 7.75% and 4.30%
Group B, feces day 2, Day 7 necropsy
  % Recovered Dose - Feces per Day: 7.66% and 12.16% and 9.09% and 13.43%
Group B, feces day 3, Day 7 necropsy
  % Recovered Dose - Feces per Day: 2.15% and 3.85% and 3.59% and 3.55%
Group B, feces day 4, Day 7 necropsy
  % Recovered Dose - Feces per Day: 3.14% and 4.08% and 1.98% and 4.25%
Group B, feces day 5, Day 7 necropsy
  % Recovered Dose - Feces per Day: 1.34% and 2.97% and 0.93% and 2.49%
Group B, feces day 6, Day 7 necropsy
  % Recovered Dose - Feces per Day: 2.28% and 6.44% and 1.47% and 2.02%
Group B, feces day 7, Day 7 necropsy
  % Recovered Dose - Feces per Day: 1.46% and 2.68% and 1.21% and 2.10%
Group C, feces day 1, Day 7 necropsy
  % Recovered Dose - Feces per Day: 8.78% and 6.29% and 9.94% and 4.97%
Group C, feces day 2, Day 7 necropsy
  % Recovered Dose - Feces per Day: 15.31% and 12.37% and 22.78% and 14.58%
Group C, feces day 3, Day 7 necropsy
  % Recovered Dose - Feces per Day: 2.49% and 5.42% and 4.54% and 6.24%
Group C, feces day 4, Day 7 necropsy
  % Recovered Dose - Feces per Day: 3.01% and 3.04% and 5.87% and 3.77%
Group C, feces day 5, Day 7 necropsy
  % Recovered Dose - Feces per Day: 1.70% and 2.00% and 3.00% and 2.15%
Group C, feces day 6, Day 7 necropsy
  % Recovered Dose - Feces per Day: 1.91% and 2.24% and 2.37% and 2.32%
Group C, feces day 7, Day 7 necropsy
  % Recovered Dose - Feces per Day: 1.21% and 1.32% and 1.95% and 1.31%
Group E, feces day 1, Day 7 necropsy
  % Recovered Dose - Feces per Day: 6.19% and 11.96% and 7.28% and 11.97%
Group E, feces day 2, Day 7 necropsy
  % Recovered Dose - Feces per Day: 19.35% and 15.22% and 16.75% and 13.98%
Group E, feces day 3, Day 7 necropsy
  % Recovered Dose - Feces per Day: 3.91% and 2.72% and 3.36% and 3.87%
Group E, feces day 4, Day 7 necropsy
  % Recovered Dose - Feces per Day: 5.36% and 3.66% and 5.40% and 5.25%
Group E, feces day 5, Day 7 necropsy
  % Recovered Dose - Feces per Day: 1.97% and 1.84% and 1.67% and 1.79%
Group E, feces day 6, Day 7 necropsy
  % Recovered Dose - Feces per Day: 2.01% and 2.66% and 2.92% and 1.87%
Group E, feces day 7, Day 7 necropsy
  % Recovered Dose - Feces per Day: 2.11% and 1.97% and 2.22% and 1.18%
Group F, feces day 1, Day 7 necropsy
  % Recovered Dose - Feces per Day: 6.91% and 7.78% and 14.62% and 9.13%
Group F, feces day 2, Day 7 necropsy
  % Recovered Dose - Feces per Day: 14.25% and 13.00% and 16.24% and 15.40%
Group F, feces day 3, Day 7 necropsy
  % Recovered Dose - Feces per Day: 13.31% and 3.36% and 3.68% and 5.91%
Group F, feces day 4, Day 7 necropsy
  % Recovered Dose - Feces per Day: 4.17% and 4.09% and 3.98% and 3.52%
Group F, feces day 5, Day 7 necropsy
  % Recovered Dose - Feces per Day: 1.77% and 2.34% and 1.75% and 1.78%
Group F, feces day 6, Day 7 necropsy
  % Recovered Dose - Feces per Day: 1.60% and 2.84% and 1.72% and 1.54%
Group F, feces day 7, Day 7 necropsy
  % Recovered Dose - Feces per Day: 0.74% and 2.65% and 2.45% and 1.59%
